Reference: publication PMC2637613 (Basic & clinical pharmacology & toxicology, 2008)
pIC50: −log10 of the molar value. Counter-ions that a name gives are not always drawn.

Experiments:
BCRP [1] = biological target: T1, BCRP (Homo sapiens, UniProt Q9UNQ0); settings: estimated liver concentration divided by BCRP IC50 in MCF7/MX100 cells
T1 sequence (Q9UNQ0 1-655): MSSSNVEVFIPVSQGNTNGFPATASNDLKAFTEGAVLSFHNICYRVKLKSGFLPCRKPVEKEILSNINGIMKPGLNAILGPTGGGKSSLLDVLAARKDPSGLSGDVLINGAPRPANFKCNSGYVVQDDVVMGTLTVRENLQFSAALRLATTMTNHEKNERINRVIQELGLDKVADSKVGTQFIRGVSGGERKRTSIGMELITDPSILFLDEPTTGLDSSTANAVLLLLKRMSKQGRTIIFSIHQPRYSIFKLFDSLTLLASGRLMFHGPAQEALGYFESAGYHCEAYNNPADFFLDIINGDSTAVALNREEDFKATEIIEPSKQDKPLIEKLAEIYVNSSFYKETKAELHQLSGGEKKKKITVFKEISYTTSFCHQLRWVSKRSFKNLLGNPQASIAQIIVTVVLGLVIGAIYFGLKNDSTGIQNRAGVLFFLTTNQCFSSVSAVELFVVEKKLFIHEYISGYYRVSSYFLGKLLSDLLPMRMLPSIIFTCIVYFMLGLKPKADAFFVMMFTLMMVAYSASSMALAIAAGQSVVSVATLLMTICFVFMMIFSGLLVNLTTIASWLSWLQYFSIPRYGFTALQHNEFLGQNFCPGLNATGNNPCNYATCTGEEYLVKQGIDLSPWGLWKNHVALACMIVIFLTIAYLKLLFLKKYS

[2] = read-out: Cmax (mean maximal plasma concentration), patients, ref Aravagiri et al. 1998, Hiemke et al. 2004, Suzuki et al. 2001, Yeung et al. 1993; cited from earlier work
[3] = calculated from mean tissue to plasma AUC ratios; ref [16]; Aravagiri et al. 2002; Aravagiri et al. 1999; Manjunath and Venkateswarlu 2005; Hopenwasser et al. 2004; Sgaragli et al. 1995; Miyazaki et al. 1986; cited from earlier work
BCRP [4] = biological target: T1, BCRP; test: cell-based

| Cmax * liver:plasma partition ratio/IC50 (BCRP [1]) | pIC50 (BCRP [4]) | Compound | Cmax [2] [nM] | Liver:plasma partition ratio [3] |
| --- | --- | --- | --- | --- |
| 0.6 | 4.28 | CN(C)CCCN1c2ccccc2Sc2ccc(Cl)cc21 [Chlorpromazine, chlorpromazine hydrochloride] | 300 | 97.7 ^9 |
| – | 4.38 | CN1CCN(C2=Nc3cc(Cl)ccc3Nc3ccccc32)CC1 [Clozapine, clozapine] | 2500 | – |
| – | < 4.00 | O=C(CCCN1CCC(O)(c2ccc(Cl)cc2)CC1)c1ccc(F)cc1 [Haloperidol] | 50 | – |
| – | – | Cc1cc2c(s1)Nc1ccccc1N=C2N1CCN(C)CC1 [Olanzapine] | 300 | – |
| 0.5 | 4.29 | Cc1nc2n(c(=O)c1CCN1CCC(c3noc4cc(F)ccc34)CC1)CCCC2O (stereo not drawn) [Paliperidone, 9-hydroxy-risperidone] | 400 | 67.5 ^5 |
| 0.04–0.10 | 4.18 | OCCOCCN1CCN(C2=Nc3ccccc3Sc3ccccc32)CC1 [Quetiapine, quetiapine] | 800 | 3.5–8.7 ^8 |
| – | – | Cc1nc2n(c(=O)c1CCN1CCC(c3noc4cc(F)ccc34)CC1)CCCC2 [Risperidone] | 400 | – |
